In patent publication US20040259875A1, “Amine derivatives” (priority 2001, published 2004):

| SMILES | melting point |
| --- | --- |
| O=C(Nc1ccc2c(c1)C(=O)c1ccccc1-2)Nc1c(Cl)cc(Cl)c2ccc(O)cc12 [Example 4-36] | 236 °C (dec.) |
| O=C(Nc1ccc2c(c1)CCCC2=O)Nc1c(Cl)cc(Cl)c2ccc(O)cc12 [Example 4-40] | 230 °C (dec.) |
| Nc1ccc2cccc(NC(=O)Nc3ccc(Cl)c(C(F)(F)F)c3)c2c1 [Example 1-76, N-(7-amino-naphthalen-1-yl)-N′-(4-chloro-3-trifluoromethyl-phenyl)urea] | 232 to 234 °C |
| O=C(Nc1ccc(N2CCOCC2)c(Cl)c1)Nc1c(Cl)cc(Cl)c2ccc([O-])cc12.[K+] | 188 °C |
| CN(C)c1ccc(NC(=O)Nc2c(Cl)cc(Cl)c3ccc(O)cc23)cc1 [Example 1-32] | 192 °C (dec.) |
| CC(=O)Oc1ccc2c(Cl)cc(Cl)c(NC(=O)Nc3cccc(-c4ccc(Cl)c(F)c4)c3)c2c1 [Example 3-5] | 287 °C |
| CC(=O)Oc1ccc2c(Cl)cc(Cl)c(NC(=O)Nc3ccc(F)c(F)c3)c2c1 [Example 3-14] | 226 °C (dec.) |
| O=C(Nc1ccc(F)cc1Cl)Nc1c(Cl)cc(Cl)c2ccc(O)cc12 [Example 4-16] | 298 °C (dec.) |
| Cc1cc(NC(=O)Nc2c(Cl)cc(Cl)c3ccc(O)cc23)ccc1F [Example 4-45] | 250 to 252 °C (dec.) |
| CNc1ccc2cccc(NC(=O)Nc3ccc(Cl)c(C(F)(F)F)c3)c2c1 [Example 1-74] | 218 to 219 °C |
| CCOC(=O)c1cccc(NC(=O)Nc2c(Br)cc(Br)c3ccc(O)cc23)c1 [Example 1-17] | 193 to 196 °C |
| O=C(NCc1cccc(F)c1)Nc1c(Cl)cc(Cl)c2ccc(O)cc12 [Example 1-30] | 225 to 228 °C |
| CCN(CC)c1ccc(NC(=O)Nc2c(Cl)ccc3ccc(O)cc23)cc1 [Example 1-35] | 199.8 to 200.5 °C |
| O=C(Nc1ccc(Cl)c(C(F)(F)F)c1)Nc1cccc2ccc(O)c(F)c12 [Example 1-34] | 228 °C |
| O=C(Nc1ccc2ccccc2c1)Nc1cccc2ccc(O)c(F)c12 [Example 1-53] | 189 °C |
| O=C(Nc1ccc2c(c1)C(=O)c1ccccc1-2)Nc1c(Cl)cc(Cl)c2ccc([O-])cc12.[K+] | 200 °C |
| CC(=O)Oc1ccc2c(Cl)cc(Cl)c(NC(=O)Nc3ccc(N4CCOCC4)c(Cl)c3)c2c1 [Example 3-13] | 206 °C |
| O=C(Nc1ccc(Cl)cc1)Nc1c(Br)cc(Br)c2ccc(O)cc12 [Example 1-26] | 229 to 233 °C |
| Cc1cc(NC(=O)Nc2c(Cl)cc(Cl)c3ccc([O-])cc23)ccc1Cl.[K+] | 190 °C |
| O=C(Nc1ccc(Cl)c(C(F)(F)F)c1)Nc1c(Cl)cc(Cl)c2ccc([O-])cc12.[K+] | 150 °C (dec.) |
| Cc1ccc(NC(=O)Nc2c(Cl)cc(Cl)c3ccc(O)cc23)cc1F [Example 4-42] | 261 to 264 °C (dec.) |
| O=C(Nc1ccc(F)cc1)Nc1c(Br)cc(Br)c2ccc(O)cc12 [Example 1-25] | 222 to 225 °C |
| Cc1ccc(NC(=O)Nc2c(Cl)cc(Cl)c3ccc(O)cc23)cc1C [Example 4-12] | 239 °C (dec.) |
| CS(=O)(=O)Nc1ccc2cccc(NC(=O)Nc3ccc(Cl)c(C(F)(F)F)c3)c2c1 [Example 10-1, N-{8-[({[4-Chloro-3-(trifluoromethyl)phenyl]amino}carbonyl)amino]-2-naphthyl}methanesulfonamide] | 225 to 226 °C |

| SMILES | melting point |
| --- | --- |
| O=C(Nc1ccc(F)c(F)c1)Nc1c(Cl)cc(Cl)c2ccc(O)cc12 [Example 4-38] | 244 °C (dec.) |
| O=C(NCc1cccc(F)c1)Nc1c(Br)cc(Br)c2ccc(O)cc12 [Example 1-33] | 215 to 218 °C |
| O=C(NCc1ccc(Br)cc1)Nc1cccc2ccc([O-])c(F)c12.[K+] | 185 °C |
| O=C(Nc1ccc(Cl)cc1)Nc1c(Cl)cc(Cl)c2ccc(O)cc12 [Example 1-21] | 253 to 255 °C |
| COc1cccc(-c2cccc(NC(=O)Nc3c(Cl)cc(Cl)c4ccc([O-])cc34)c2)c1.[K+] | 206 °C (dec.) |
| O=C(Nc1cccc(Cl)c1)Nc1c(Br)cc(Br)c2ccc(O)cc12 [Example 1-3] | 242 to 243 °C |
| Cc1ccc(NC(=O)Nc2ccc(Cl)c(C(F)(F)F)c2)c2cc(O)ccc12 [Example 1-80] | 237 to 238 °C |
| O=C(Nc1cccc(Cl)c1)Nc1c(Cl)ccc2ccc(O)cc12 [Example 1-2] | 242 to 243 °C |
| O=C(NCc1ccc(Br)cc1)Nc1cccc2ccc(O)cc12 [Example 1-71] | 210 °C |
| O=C(Nc1ccc(Cl)c(C(F)(F)F)c1)Nc1cccc2ccc(NCc3ccccc3)cc12 [Example 1-75] | 193 to 194 °C |
| CC(=O)Oc1ccc2c(Cl)cc(Cl)c(NC(=O)Nc3cnc4ccccc4c3)c2c1 [Example 3-16] | 205 °C (dec.) |
| COc1ccc(NC(=O)Nc2c(Cl)cc(Cl)c3ccc(O)cc23)cc1F [Example 4-41] | 235 to 238 °C (dec.) |
| O=C(Nc1cccc(Cl)c1)Nc1cccc2ccc(OC(=O)c3ccccc3)cc12 [Example 1-166] | 214 to 215 °C |
| O=C(Nc1cccc(C(F)(F)F)c1)Nc1c(Br)cc(Br)c2ccc(O)cc12 [Example 1-27] | 233 to 236 °C |
| O=C(Nc1cc(C(F)(F)F)ccc1Cl)Nc1c(Cl)cc(Cl)c2ccc(O)cc12 [Example 1-41] | > 300 °C |
| CCOC(=O)c1ccc(NC(=O)Nc2c(Cl)cc(Cl)c3ccc(O)cc23)cc1 [Example 1-13] | 258 to 260 °C |
| O=C(Nc1cccc(-c2ccc(Cl)c(F)c2)c1)Nc1c(Cl)cc(Cl)c2ccc([O-])cc12.[K+] | 174 °C (dec.) |
| CC1COC(c2cccc(NC(=O)Nc3c(Cl)ccc4ccc(O)cc34)c2)=N1 (stereo not drawn) [Example 5-2] | 162 °C (dec.) |
| O=C(Nc1cccc(-c2ccc(Cl)c(F)c2)c1)Nc1c(Cl)cc(Cl)c2ccc(O)cc12 [Example 4-19] | 241 °C (dec.) |
| CN(C(=O)NCc1ccc(Br)cc1)c1cccc2ccc(O)cc12 [Example 1-78] | 194 °C |
| CN(C(=O)Nc1ccc2ccccc2c1)c1cccc2ccc(O)cc12 [Example 1-79] | 215 °C |
| O=C(Nc1ccc2c(c1)CCC2)Nc1c(Cl)cc(Cl)c2ccc(O)cc12 [Example 4-32] | > 300 °C |
| CNc1ccc2ccc(Cl)c(NC(=O)Nc3ccc(Cl)c(C(F)(F)F)c3)c2c1 [Example 1-77] | 258 to 259 °C |
| O=C(Nc1cccc(F)c1)Nc1c(Cl)cc(Cl)c2ccc(O)cc12 [Example 1-40] | > 300 °C |

| SMILES | melting point |
| --- | --- |
| O=C(Nc1ccc(Cl)c(C(F)(F)F)c1)Nc1cccc2ccc(OC(=O)c3ccccc3)cc12 [Example 1-165] | 220 to 222 °C |
| O=C(Nc1cccc(Cl)c1Cl)Nc1c(Cl)cc(Cl)c2ccc(O)cc12 [Example 1-39] | 300 °C |
| O=C(Nc1ccc(F)c(C(F)(F)F)c1)Nc1ccc(Br)c2ccc(O)cc12 [Example 1-73] | 215 °C |
| O=C(Nc1ccc(Cc2ccccc2)cc1)Nc1c(Cl)cc(Cl)c2ccc(O)cc12 [Example 4-14] | 230 °C (dec.) |
| O=C(Cc1cccc2ccc(O)cc12)Nc1ccc(Cl)c(C(F)(F)F)c1 [Example 11-1, N-[4-Chloro-3-(trifluoromethyl)phenyl]-2-(7-hydroxy-1-naphthyl)acetamide] | 162 °C |
| O=C(Nc1ccc(Cl)c(C(F)(F)F)c1)Nc1c(Cl)ccc2ccc(O)cc12 [Example 1-8] | 260 °C (dec.) |
| CC(=O)Nc1ccc2cccc(NC(=O)Nc3ccc(Cl)c(C(F)(F)F)c3)c2c1 [Example 9-1, N-{8-[({[4-Chloro-3-(trifluoromethyl)phenyl]amino}carbonyl)amino]-2-naphthyl}acetamide] | 241 to 242 °C |
| CC(=O)Oc1ccc2c(Cl)cc(Cl)c(NC(=O)Nc3cccc(-c4ccccc4Cl)c3)c2c1 [Example 3-1, 5,7-Dichloro-8-({[(2′-chloro-1,1′-biphenyl-3-yl)amino]carbonyl}amino)-2-naphthyl acetate] | 180 °C |
| CCOC(=O)c1cccc(NC(=O)Nc2c(Cl)cc(Cl)c3ccc(O)cc23)c1 [Example 1-12] | 234 to 236 °C |
| O=C(Nc1ccc(C(F)(F)F)cc1)Nc1c(Cl)cc(Cl)c2ccc(O)cc12 [Example 1-23] | 268 to 271 °C |
| Cc1cc(NC(=O)Nc2c(Cl)cc(Cl)c3ccc(O)cc23)ccc1Cl [Example 4-39] | 240 °C (dec.) |
| O=C(NCc1ccc(Br)cc1)Nc1c(Cl)ccc2ccc(O)cc12 [Example 1-6] | 226 to 229 °C |
| CC(C)(C)c1cc(NC(=O)Nc2c(Br)cc(Br)c3ccc(O)cc23)no1 [Example 5-1, N-(5-tert-Butyl-3-isoxazolyl)-N′-(2,4-dibromo-7-hydroxy-1-naphthyl)urea] | 214.5 °C |
| O=C(Nc1ccc(Cl)c(C(F)(F)F)c1)Nc1c(Cl)cc(CO)c2ccc(O)cc12 [Example 1-82] | 210 °C |
| Cc1cc(Cl)c(NC(=O)Nc2ccc(Cl)c(C(F)(F)F)c2)c2cc(O)ccc12 [Example 1-83] | 254 °C |
| O=C(Nc1ccc2ccccc2c1)Nc1c(Cl)cc(Cl)c2ccc(O)cc12 [Example 1-14] | 263 to 265 °C |
| O=C(Nc1ccc(C(F)(F)F)cc1)Nc1c(Cl)cc(Cl)c2ccc([O-])cc12.[K+] | 179 °C (dec.) |
| COc1cccc(NC(=O)Nc2c(Cl)cc(Cl)c3ccc(O)cc23)c1 [Example 1-11] | 223 to 226 °C |
| O=C(Nc1ccc(Cl)c(C(F)(F)F)c1)Nc1ccc(Br)c2ccc(O)cc12 [Example 1-72] | 211 °C |
| COc1cccc(NC(=O)Nc2c(Br)cc(Br)c3ccc(O)cc23)c1 [Example 1-16] | 213 to 216 °C |
| O=C(Nc1cccc2c1C(=O)c1ccccc1-2)Nc1c(Cl)cc(Cl)c2ccc(O)cc12 [Example 4-37] | > 250 °C |
| CC(=O)Oc1ccc2c(Br)cc(Br)c(NC(=O)Nc3cccc(-c4ccccc4)c3)c2c1 [Example 3-2] | 235 °C (dec.) |
| C=CCOc1ccc2cccc(NC(=O)Nc3ccc(Cl)c(C(F)(F)F)c3)c2c1 [Example 1-164] | 183 to 184 °C |
| O=C(Nc1ccc(Cl)c(C(F)(F)F)c1)Nc1c(Cl)cc(Cl)c2ccc(O)cc12 [Example 1-9] | 255 °C (dec.) |
